These results are taken from patent publication US5314911A, “Immunosuppressive agent” (Shionogi Seiyaku Kabushiki Kaisha, priority 1992, dated 1994).

One data set concerns P388/ADM. The data set can be described thus: Inhibition of cell growth (MTT). The data set is classed as cell-based, Mouse. As to the method: (§1) Each cell defined in Table 3 was put in each well of a 96-well microtiter plate in one 0.1 ml-scale containing the defined number of cells and preincubated for one day under the same condition as in 1). PA-48153C (0.1 ml) was added to each well in such a manner that its final concentration was in a range from 0 to 5,000 ng/ml. After 3-4 days incubation, 25 μl of 6 mg/ml MTT [3-(4,5-dimethylthiazol-2-yl)-2,5-diphenyltetrazolium bromide] (Sigma) was added to each well. After further incubation at 37° C. for 4 hr under the same condition, formazan generated therein was dissolved by adding 50 μl of 20% […] (SDS) in 0.02N HCl and allowing to stand at 37° C. for 24 hr. An amount of formazan generated in proportion to the number of live cells was determined according to optical density analyzed by an immunoreader (Sanko Junyaku k.k.) equipped with a 570 nm-filter (reference to J. Immunol. Methods 65, 55-63 (1983)). IC50 (concentration inhibiting 50% cell growth) was calculated from the correlativity of PA-48153C concentration with optical density.

Another data set relates to CCD-19Lu. Put plainly: Inhibition of cell growth (MTT). Particulars: Human normal lung, MEM, 2 × 10^4 cells/well, 3-4 days, read-out: IC50 (concentration inhibiting 50% cell growth). The data set is classed as cell-based. The protocol:
as §1

For the next data set, the system named is P388. The data set can be described thus: Inhibition of cell growth (MTT). The data set is classed as cell-based. Particulars: Mouse leukemia, RPMI 1640, 5 × 10^2 cells/well, 3-4 days, read-out: IC50 (concentration inhibiting 50% cell growth). As to the method:
as §1

Data set [1] has as its system Aspergillus fumigatus IFO 8866. The data set can be described thus: Antifungal activity, liquid doubling dilution method. Particulars: IFO8866, Sabouraud broth, 24 hr, 37° C., read-out: minimum inhibitory concentration (MIC). The data set is classed as cell-based. The protocol:
(§2) Antifungal activity of PA-48153C was determined according to the liquid doubling dilution method using Sabouraud or YNB broth.

The next data set relates to Candida albicans KE-2. The description is as above. The data set is classed as cell-based. Particulars: KE2, YNB broth, 48 hr, 37° C., read-out: minimum inhibitory concentration (MIC). As to the method:
as §2

For data set [2], the system named is Con A reaction of mouse splenic cell. The data set can be described thus: Effect on mitogenic responses (Con A reaction of mouse splenic mononuclear cells, [3H]-TdR incorporation). The format is cell-based, C3H/HeN mice. The protocol:
Splenic mononuclear cells (5×10^5) from C3H/HeN mice were suspended in 0.2 ml of RPMI 1640 medium containing 10% fetal bovine serum and 5×10^-5 M 2-mercaptoethanol (RPMI/FCS) and plated 96-well microtiter plates. The cells were cultured with 5 μg/ml of Concanavalin A (Con A; Type IV, Sigma Chemical Co.) for 72 hr at 37° C. in a humidified atmosphere of 5% carbon dioxide and 95% of air. PA-48153C was dissolved in dimethyl sulfoxide (DMSO) and added to the mitogenic response. The final concentration was not more than 100 ng/ml. Eighteen hours before harvesting, 0.5 μCi of tritiated thymidine ([^3 H]-TdR) was added to each well. The cells were harvested onto glass filter paper using a semi-automated multiple cell harvester, and [^3 H]-TdR incorporation was determined by liquid scintillation counter.

The test system of another data set is LU-99. The data set can be described thus: Inhibition of cell growth (MTT). The data set is classed as cell-based, Human. The protocol: as §1
The next data set can be described thus: Solubility. The format is physicochemical.
Data set [3] relates to allo-MLR (C3H/HeN mouse splenic mononuclear cells with C57BL/6 mouse splenic mononuclear cells). The data set can be described thus: Allogenic mixed lymphocyte reaction (allo-MLR) in vitro, [3H]-TdR incorporation. Particulars: 144 h, 6 days, read-out: IC50 value inhibiting allo MLR. The format is cell-based. As to the method:
Induction and assay of allo-MLR were performed in 96 well microtiter plates. C3H/HeN (H-2^k) mouse splenic mononuclear cells (5×10^5 cells in 0.1 ml of RPMI/FCS) were mixed with an equal volume of mitomycin C-treated (50 μg/ml, 37° C., 30 min, washed 3 times with RPMI 1640) C57BL/6 (H-2^b) mouse splenic mononuclear cells (5×10^5 cells) and incubated with RPMI/FCS in 96 well microtiter plate for 6 days under the same condition as described in 1). PA-48153C was added to the allo-MLR in such a manner that its final concentration was not more than 100 ng/ml. Eighteen hours before harvesting, 0.5 μCi of [^3 H]-TdR was pulsed to each well. The cells were harvested and assayed for allo-MLR by their ability to uptake [^3 H]-TdR incorporation.

For another data set, the system named is tumor cells. The data set can be described thus: Inhibition of cell growth (MTT), summary over tumor cells. The format is cell-based. The protocol: as §1

Converted amounts (≈) assume the structure as drawn.

By inhibition is commonly meant the percentage by which the read-out fell short of the control. High values mean a response far below the control, low ones a response near the control. As for `C/C=C/C[C@H](C)[C@@H](OC)[C@@H](C)[C@H](O)C[C@H]1OC(=O)C=C[C@H]1CC` (relative stereo) [PA-48153C, (5R*,6R*)-5-ethyl-5,6-dihydro-6-[(E)-(2R*,3S*,4R*,5S*)-2-hydroxy-4-methoxy-3,5-dimethyl-7-nonenyl]-2H-pyran-2-one], in the data set on P388/ADM, the “growth inhibition of multi-resistant carcinoma P388/ADM (in words)” value is “strongly inhibits the growth of multi-resistant carcinoma P388/ADM”. The IC50 in the data set on P388/ADM (P388/ADM, Mouse leukemia (multi-resistant carcinoma), RPMI 1640, 5 × 10^2 cells/well, 3-4 days, read-out: IC50 (concentration inhibiting 50% cell growth)) was 4.8 ng/mL (≈ 0.0148 µM); in the data set with CCD-19Lu, over 5 µg/mL; with P388, 1.8 ng/mL (≈ 0.00555 µM); in data set [2] (Mus musculus, Con A 5 μg/ml, 72 hr), 4.8 ng/mL (≈ 0.0148 µM); with LU-99 (Lu-99, Human giant-cell carcinoma of lung, RPMI 1640, 2 × 10^3 cells/well, 3-4 days, read-out: IC50 (concentration inhibiting 50% cell growth)), 2.2 ng/mL (≈ 0.00678 µM); in data set [3] it was 3.1 ng/mL (≈ 0.00955 µM). Besides, the MIC was 12.5 µg/mL (≈ 38.5 µM) in data set [1] and 50 µg/mL (≈ 154 µM) in the data set with Candida albicans KE-2. The inhibition at 0.0017 µg/mL in [2] (Mus musculus, PA-48153C 1.7 ng/ml, Con A 5 μg/ml, 72 hr) came to 83.8%. In addition, at 0.0056 µg/mL the inhibition in [2] (Mus musculus, PA-48153C 5.6 ng/ml, Con A 5 μg/ml, 72 hr) was 61.6%. In data set [2] (Mus musculus, PA-48153C 50.0 ng/ml, Con A 5 μg/ml, 72 hr), this compound came in with an inhibition at 0.05 µg/mL of 94%. In addition, the “Radioactivity cpm ± SD” value in data set [2] (PA-48153C 1.7 ng/ml, Con A 5 μg/ml, 72 hr) was 10,200 ± 451 cpm; in data set [2] (PA-48153C 5.6 ng/ml, Con A 5 μg/ml, 72 hr) it was 24,200 ± 883 cpm; in data set [2] (PA-48153C 50.0 ng/ml, Con A 5 μg/ml, 72 hr) it was 3,780 ± 141 cpm. For the same compound, the “inhibition of proliferative response to Con A (in words)” value in data set [2] (splenic mononuclear cell from normal mice) is “inhibited the proliferative response of splenic mononuclear cell from normal mice to Con A in a dose-dependent fashion”. In addition, in the data set with LU-99 (ratio CCD-19Lu / Lu-99), the “IC50 to normal lung cell CCD-19Lu relative to that to giant-cell carcinoma of lung Lu-99” value is reported as “at least 2,500 times”. The “Solubility in organic solvents” value in the data set “Solubility” (n-hexane, ethyl acetate, chloroform, methanol) is “soluble in n-hexane, ethyl acetate, chloroform, methanol”. In addition, in the data set “Solubility” (water), the Solubility in water result is “insoluble in water”. Also, the “growth inhibition of tumor cells (in words)” value in the data set on tumor cells is on record as “strongly inhibits the growth of tumor cells”.
